# Patent US12473304B2, “Heterocyclic PAD4 inhibitors” (BRISTOL-MYERS SQUIBB COMPANY, priority 2020, dated 2025)
# Target: human PAD4 (hPAD4) (Homo sapiens (Human), UniProt Q9UM07)
# Test: RFMS Human PAD4 Functional Assay 1
# Type: biochemical
# Details: RFMS assay 1; 5 nM hPAD4, 250 μM BAEE substrate, 50 μM calcium, 37° C.
# Description: RFMS Human PAD4 Functional Assay 1:
# Compounds were solubilized in 100% DMSO to achieve all) mM compound concentration. Compound stock solutions were stored at RT. A series of dilutions were prepared in DMSO and mixed 8 times with 20 μL mixing volume. Final top concentration of compound in the assay is 50 μM. Final assay conditions were as follows: • Reaction volume: 26 μl • Assay buffer: 25 mM hepes, pH 7.5, 5 mM NaCl, 1 mM DTT, 0.2 mg/ml BSA, 0.01% CHAPS, 50 μM Calcium, and 5 μM TPEN • Final concentrations: 5 nM hPAD4 enzyme, 250 μM BASE, and 0.5% DMSO • Total incubation time: 30 mins compound and enzyme preincubation at 37° C., 90 min enzyme/substrate reaction, 30 min reaction with phenyl glyoxal at 37° C. • Stop solution: 40 μl 5% TCA in ACN
# 0.13 μL of compound solution was added to 13 μL of 10 nM PAD4 in assay buffer. After 30 min 13 μl of 500 μM of BAEE was added in 25 mM hepes, pH 7.5, 5 mM NaCl, 1 mM DTT, 0.2 mg/ml BSA, 0.01% CHAPS, 50 μM Calcium, 5 μM TPEN was added and the reaction incubated for 90 min at 37° C. The enzymatic reaction was quenched by addition of 15 μl of 6.1N TCA, 100% Final Concentration is 20%, 35 μl of 8.5 mM phenyl glyoxal (final concentration 4 mM) is then added and the reaction is incubated for 30 min at 37° C.
# After 30 minutes the plates are spun down to remove all precipitate. The enzyme reaction was quenched with an equal volume of methanol containing internal standard (modified citrulline). Samples were loaded onto the Rapid Fire RF300 system (Agilent) wherein they were first sipped for 1000 ms and then directly loaded to a C18 separations cartridge using a mixture of acetonitrile containing 0.01% formic acid for 3000 ms desalting. The flow rate of the mobile phase was 1.5 ml/min. Once the samples were eluted from the cartridge, a mobile phase of acetonitrile containing 0.01% formic acid was used to move the samples into the mass spectrometer for 4000 ms at a flow rate of 1.25 ml/min/Sciex API5500 triple quadrupole mass spectrometer (Applied Biosystems) equipped with ESI was used to analyze the peptidyl citrulline and internal standard ions.
# MRM transition of product and internal standard were monitored at m/z 424.5 to 350.4 and m/z 293 to 247 respectively. The dwell time for each transition was set at 200 ms, and the ESI voltage was used at 5500 with a source temperature of 400° C. Extracted ion peaks for each transition were integrated using the Rapid Fire Integrator software. Peak area of analyte was normalized with internal standard.).
# Chain of human PAD4 (hPAD4) (Q9UM07 whole entry): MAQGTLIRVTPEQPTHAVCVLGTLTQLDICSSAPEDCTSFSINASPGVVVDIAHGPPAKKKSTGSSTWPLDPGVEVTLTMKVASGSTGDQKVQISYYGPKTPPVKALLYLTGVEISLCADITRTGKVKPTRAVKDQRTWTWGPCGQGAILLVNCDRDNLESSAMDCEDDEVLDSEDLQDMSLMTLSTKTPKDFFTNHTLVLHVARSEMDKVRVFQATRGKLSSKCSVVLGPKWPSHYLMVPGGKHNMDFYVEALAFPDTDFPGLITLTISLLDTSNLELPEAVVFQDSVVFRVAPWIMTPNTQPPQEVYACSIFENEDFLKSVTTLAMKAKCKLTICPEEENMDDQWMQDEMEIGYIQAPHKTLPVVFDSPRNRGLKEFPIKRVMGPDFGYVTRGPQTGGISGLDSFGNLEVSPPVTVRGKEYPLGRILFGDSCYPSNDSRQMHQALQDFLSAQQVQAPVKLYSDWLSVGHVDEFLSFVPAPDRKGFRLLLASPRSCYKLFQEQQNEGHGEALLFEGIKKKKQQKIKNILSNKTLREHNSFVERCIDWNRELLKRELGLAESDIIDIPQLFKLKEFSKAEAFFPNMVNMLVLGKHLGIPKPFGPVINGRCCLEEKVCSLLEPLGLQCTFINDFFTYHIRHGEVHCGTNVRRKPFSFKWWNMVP
row,Structure (SMILES),IC50 [nM]
1,"COc1cc(C(=O)N2C[C@H](N)C[C@@H](F)C2)cn2nc(-c3cc4cccc(C5CCN(C(=O)C6CCCCO6)CC5)c4n3CC3CC3)c(C)c12 (single isomer, unassigned) [Example 388]",70
2,"COc1cc(C(=O)N2C[C@H](N)C[C@@H](F)C2)cn2nc(-c3cc4cccc(C5CCN(C(=O)C6CCCCO6)CC5)c4n3CC3CC3)c(C)c12 (single isomer, unassigned) [Example 389]",30
3,"COc1cc(C(=O)N2C[C@H](N)C[C@@H](F)C2)cn2nc(-c3cc4cccc(C5CCN(C(=O)C6CC(O)C6)CC5)c4n3CC3CC3)c(C)c12 (single isomer, unassigned) [Example 390]",5
4,"COc1cc(C(=O)N2CCC[C@@H](N)C2)cn2nc(-c3cc4cccc(C5CCN(C(=O)C6CC(O)C6)CC5)c4n3CC3CC3)c(C)c12 (single isomer, unassigned) [Example 392]",3
5,"Cc1c(-c2cc3cc(F)cc(C4CCN(C(=O)C5CCCO5)CC4)c3n2CC2CC2)nn2cc(C(=O)N3CCC[C@@H](N)C3)ccc12 (single isomer, unassigned) [Example 488]",250
6,"Cc1c(-c2cc3cc(F)cc(C4CCN(C(=O)C5CCCO5)CC4)c3n2CC2CC2)nn2cc(C(=O)N3CCC[C@@H](N)C3)ccc12 (single isomer, unassigned) [Example 489]",70
7,"Cc1c(-c2cc3cc(F)cc(C4CCN(C(=O)C5CCCO5)CC4)c3n2CC2CC2)nn2cc(C(=O)N3C[C@H](N)C[C@@H](F)C3)ccc12 (single isomer, unassigned) [Example 491]",1310
8,"COc1cc(C(=O)N2CCC[C@@H](N)C2)cn2nc(-c3cc4cccc(OCC5CC(=O)N(C)C5)c4n3CC3CC3)c(C)c12 (single isomer, unassigned) [Example 551]",160
9,"COc1cc(C(=O)N2C[C@H](N)C[C@@H](F)C2)cn2nc(-c3cc4cccc(OCC5CC(=O)N(C)C5)c4n3CC3CC3)c(C)c12 (single isomer, unassigned) [Example 553]",90
10,"COc1cc(C(=O)N2CCC[C@@H](N)C2)cn2nc(-c3cc4cccc(OCC5CNC(=O)C5)c4n3CC3CC3)c(C)c12 (single isomer, unassigned) [Example 562]",140
11,"COc1cc(C(=O)N2C[C@H](N)C[C@@H](F)C2)cn2nc(-c3cc4cccc(OCC5CNC(=O)C5)c4n3CC3CC3)c(C)c12 (single isomer, unassigned) [Example 563]",70
12,"COc1cc(C(=O)N2C[C@H](N)C[C@@H](F)C2)cn2nc(-c3cc4cccc(OCC5CNC(=O)C5)c4n3CC3CC3)c(C)c12 (single isomer, unassigned) [Example 565]",20
13,"Cc1c(-c2cc3cccc(OCC4CNC(=O)C4)c3n2CC2CC2)nn2cc(C(=O)N3CCC[C@@H](N)C3)cc(F)c12 (single isomer, unassigned) [Example 571]",30
14,"Cc1c(-c2cc3cccc(OCC4CNC(=O)C4)c3n2CC2CC2)nn2cc(C(=O)N3C[C@H](N)C[C@@H](F)C3)ccc12 (single isomer, unassigned) [Example 573]",110
15,"Cc1c(-c2cc3cccc(OCC4CC(=O)N(C)C4)c3n2CC2CC2)nn2cc(C(=O)N3CCC[C@@H](N)C3)ccc12 (single isomer, unassigned) [Example 576]",190
16,"Cc1c(-c2cc3cccc(OCC4CC(=O)N(C)C4)c3n2CC2CC2)nn2cc(C(=O)N3CCC[C@@H](N)C3)ccc12 (single isomer, unassigned) [Example 578]",190
17,"Cc1c(-c2cc3cccc(OCC4CC(=O)N(C)C4)c3n2CC2CC2)nn2cc(C(=O)N3C[C@H](N)C[C@@H](F)C3)ccc12 (single isomer, unassigned) [Example 579]",240
18,"Cc1c(-c2cc3cccc(OCC4CNC(=O)C4)c3n2CC2CC2)nn2cc(C(=O)N3CCC[C@@H](N)C3)ccc12 (single isomer, unassigned) [Example 588]",230
19,"Cc1c(-c2cc3cccc(OCC4CNC(=O)C4)c3n2CC2CC2)nn2cc(C(=O)N3CCC[C@@H](N)C3)ccc12 (single isomer, unassigned) [Example 589]",60
20,"Cc1c(-c2cc3cccc(OCC4CNC(=O)C4)c3n2CC2CC2)nn2cc(C(=O)N3C[C@H](N)C[C@@H](F)C3)ccc12 (single isomer, unassigned) [Example 590]",30
21,"COc1cc(C(=O)N2C[C@H](N)C[C@@H](F)C2)cn2nc(-c3cc4ccnc(OCC5CNC(=O)C5)c4n3CC3CC3)c(C)c12 (single isomer, unassigned; isomer 1) [Example 601]",30
22,"COc1cc(C(=O)N2CC3CCC2[C@@H]3N)cn2nc(-c3cc4ccnc(OCC5CNC(=O)C5)c4n3CC3CC3)c(C)c12 (single isomer, unassigned; isomer 1) [Example 605]",70
23,"Cc1c(-c2cc3ccnc(OCC4CNC(=O)C4)c3n2CC2CC2)nn2cc(C(=O)N3C[C@H](N)C[C@@H](F)C3)ccc12 (single isomer, unassigned; isomer 1) [Example 614]",60

# Results, then the compound that gave them:
row,IC50 [nM],Structure (SMILES)
1,250,"COc1cc(C(=O)N2C[C@H](N)C[C@@H](F)C2)cn2nc(-c3cc4cccc(C5CCN(C(=O)C6CC(O)C6)CC5)c4n3CC3CC3)c(C)c12 (single isomer, unassigned) [Example 393]"
2,10,"COc1cc(C(=O)N2C[C@H](N)C[C@@H](F)C2)cn2nc(-c3cc4cccc(C5CCN(C(=O)C6CCCO6)CC5)c4n3CC3CC3)c(C)c12 (single isomer, unassigned) [Example 394]"
3,110,"COc1cc(C(=O)N2CCC[C@@H](N)C2)cn2nc(-c3cc4cccc(C5CCN(C(=O)C6CC(O)C6)CC5)c4n3CC3CC3)c(C)c12 (single isomer, unassigned) [Example 396]"
4,40,"COc1cc(C(=O)N2C[C@H](N)C[C@@H](F)C2)cn2nc(-c3cc4cccc(C5CCN(C(=O)C6CCCO6)CC5)c4n3CC3CC3)c(C)c12 (single isomer, unassigned) [Example 397]"
5,150,"Cc1c(-c2cc3cc(F)cc(C4CCN(C(=O)C5CCCO5)CC4)c3n2CC2CC2)nn2cc(C(=O)N3C[C@H](N)C[C@@H](F)C3)ccc12 (single isomer, unassigned) [Example 490]"
6,100,"COc1cc(C(=O)N2CCC[C@@H](N)C2)cn2nc(-c3cc4cccc(OCC5CC(=O)N(C)C5)c4n3CC3CC3)c(C)c12 (single isomer, unassigned) [Example 552]"
7,60,"COc1cc(C(=O)N2C[C@H](N)C[C@@H](F)C2)cn2nc(-c3cc4cccc(OCC5CC(=O)N(C)C5)c4n3CC3CC3)c(C)c12 (single isomer, unassigned) [Example 554]"
8,40,"COc1cc(C(=O)N2CCC[C@@H](N)C2)cn2nc(-c3cc4cccc(OCC5CNC(=O)C5)c4n3CC3CC3)c(C)c12 (single isomer, unassigned) [Example 564]"
9,10,"Cc1c(-c2cc3cccc(OCC4CNC(=O)C4)c3n2CC2CC2)nn2cc(C(=O)N3CCC[C@@H](N)C3)cc(F)c12 (single isomer, unassigned) [Example 566]"
10,20,"Cc1c(-c2cc3cccc(OCC4CNC(=O)C4)c3n2CC2CC2)nn2cc(C(=O)N3C[C@H](N)C[C@@H](F)C3)cc(F)c12 (single isomer, unassigned) [Example 567]"
11,80,"Cc1c(-c2cc3cccc(OCC4CNC(=O)C4)c3n2CC2CC2)nn2cc(C(=O)N3C[C@H](N)C[C@@H](F)C3)cc(F)c12 (single isomer, unassigned) [Example 572]"
12,150,"Cc1c(-c2cc3cccc(OCC4CC(=O)N(C)C4)c3n2CC2CC2)nn2cc(C(=O)N3C[C@H](N)C[C@@H](F)C3)ccc12 (single isomer, unassigned) [Example 577]"
13,30,"COc1cc(C(=O)N2CCC[C@@H](N)C2)cn2nc(-c3cc4ccnc(OCC5CNC(=O)C5)c4n3CC3CC3)c(C)c12 (single isomer, unassigned; isomer 1) [Example 591]"
14,50,"Cc1c(-c2cc3ccnc(OCC4CNC(=O)C4)c3n2CC2CC2)nn2cc(C(=O)N3CCC[C@@H](N)C3)ccc12 (single isomer, unassigned; isomer 1) [Example 618]"
15,30,"COc1cc(C(=O)N2C[C@H](N)C[C@@H](F)C2)cn2nc(-c3cc4ccnc(OCC5CNC(=O)C5)c4n3CC3CC3)c(C)c12 (single isomer, unassigned; isomer 2) [Example 602]"
